Assay results reported in patent US20200267980A1, “Herbicidally Active Pyridyl-/Pyrimidyl-Pyrimidine Derivatives” (Syngenta Participations AG, priority 2017, published 2020).

How the values were obtained:
Type in all cases: in vivo
[1] = system: Alopecurus myosuroides (ALOMY); assay: Pre-emergence herbicidal activity, glasshouse pot test; parameters: key: 5=total damage to plant; 0=no damage to plant; conditions: 1000 g/ha, pre-emergence spray, evaluated after 13 days, damage score 0-5
Description: (§1) Seeds of a variety of test species were sown in standard soil in pots: Triticum aestivium (TRZAW), Avena fatua (AVEFA), Alopecurus myosuroides (ALOMY), Echinochloa crus-galli (ECHCG), Lolium perenne (LOLPE), and Setaria faberi (SETFA). After cultivation for one day (pre-emergence) under controlled conditions in a glasshouse (at 24/16° C., day/night; 14 hours light; 65% humidity), the plants were sprayed with an aqueous spray solution derived from the formulation of the technical active ingredient in acetone/water (50:50) solution containing 0.5% Tween 20 (polyoxyethelyene sorbitan monolaurate, CAS RN 9005-64-5). The test plants were then grown in a glasshouse under controlled conditions (at 24/16° C., day/night; 14 hours light; 65% humidity) and watered twice daily. After 13 days, the test was evaluated (5=total damage to plant; 0=no damage to plant).

Avena fatua (AVEFA) [2] = assay: as above; parameters: key: 5=total damage to plant; 0=no damage to plant; conditions: 1000 g/ha, pre-emergence spray, evaluated after 13 days, damage score 0-5
Description: as §1

[3] = system: Echinochloa crus-galli (ECHCG); assay: as above; parameters: key: 5=total damage to plant; 0=no damage to plant; conditions: 1000 g/ha, pre-emergence spray, evaluated after 13 days, damage score 0-5
Description: as §1

Lolium perenne (LOLPE) [4] = assay: as above; parameters: key: 5=total damage to plant; 0=no damage to plant; conditions: 1000 g/ha, pre-emergence spray, evaluated after 13 days, damage score 0-5
Description: as §1

[5] = system: Triticum aestivium (TRZAW); assay: as above; parameters: key: 5=total damage to plant; 0=no damage to plant; conditions: 1000 g/ha, pre-emergence spray, evaluated after 13 days, damage score 0-5
Description: as §1

[6] = system: Alopecurus myosuroides (ALOMY); assay: Post-emergence herbicidal activity, glasshouse pot test; parameters: key: 5=total damage to plant; 0=no damage to plant; conditions: 1000 g/ha, post-emergence spray after 8 days cultivation, evaluated after 13 days, damage score 0-5
Description: (§2) Seeds of a variety of test species were sown in standard soil in pots: Triticum aestivium (TRZAW), Avena fatua (AVEFA), Alopecurus myosuroides (ALOMY), Echinochloa crus-galli (ECHCG), Lolium perenne (LOLPE), and Setaria faberi (SETFA). After 8 days cultivation (post-emergence) under controlled conditions in a glasshouse (at 24/16° C., day/night; 14 hours light; 65% humidity), the plants were sprayed with an aqueous spray solution derived from the formulation of the technical active ingredient in acetone/water (50:50) solution containing 0.5% Tween 20 (polyoxyethelyene sorbitan monolaurate, CAS RN 9005-64-5). The test plants were then grown in a glasshouse under controlled conditions (at 24/16° C., day/night; 14 hours light; 65% humidity) and watered twice daily. After 13 days, the test was evaluated (5=total damage to plant; 0=no damage to plant).

[7] = system: Echinochloa crus-galli (ECHCG); assay: as above; parameters: key: 5=total damage to plant; 0=no damage to plant; conditions: 1000 g/ha, post-emergence spray after 8 days cultivation, evaluated after 13 days, damage score 0-5
Description: as §2

Lolium perenne (LOLPE) [8] = assay: as above; parameters: key: 5=total damage to plant; 0=no damage to plant; conditions: 1000 g/ha, post-emergence spray after 8 days cultivation, evaluated after 13 days, damage score 0-5
Description: as §2

Setaria faberi (SETFA) [9] = assay: as above; parameters: key: 5=total damage to plant; 0=no damage to plant; conditions: 1000 g/ha, post-emergence spray after 8 days cultivation, evaluated after 13 days, damage score 0-5
Description: as §2

[10] = system: Triticum aestivium (TRZAW); assay: as above; parameters: key: 5=total damage to plant; 0=no damage to plant; conditions: 1000 g/ha, post-emergence spray after 8 days cultivation, evaluated after 13 days, damage score 0-5
Description: as §2

Avena fatua (AVEFA) [11] = assay: as above; conditions: 1000 g/ha, post-emergence spray after 8 days cultivation, evaluated after 13 days, damage score 0-5
Description: as §2

Setaria faberi (SETFA) [12] = assay: Pre-emergence herbicidal activity, glasshouse pot test; parameters: key: 5=total damage to plant; 0=no damage to plant; conditions: 1000 g/ha, pre-emergence spray, evaluated after 13 days, damage score 0-5
Description: as §1

Row | Compound | Control of weed species after pre-emergence application, ALOMY [1] | Control of weed species after pre-emergence application, AVEFA (Avena fatua (AVEFA) [2]) | Control of weed species after pre-emergence application, ECHCG [3] | Control of weed species after pre-emergence application, LOLPE (Lolium perenne (LOLPE) [4]) | Control of weed species after pre-emergence application, TRAZW [5] | Control of weed species after post-emergence application, ALOMY [6] | Control of weed species after post-emergence application, ECHCG [7] | Control of weed species after post-emergence application, LOLPE (Lolium perenne (LOLPE) [8]) | Control of weed species after post-emergence application, SETFA (Setaria faberi (SETFA) [9]) | Control of weed species after post-emergence application, TRAZW [10] | Control of weed species after post-emergence application, AVEFA (Avena fatua (AVEFA) [11]) | Control of weed species after pre-emergence application, SETFA (Setaria faberi (SETFA) [12])
1 | COCCC(=O)Nc1cnc(-c2cncc(F)c2)nc1C(F)(F)F [Compound F15] | 0 | 2 | 4 | 0 | 0 | 0 | 4 | 2 | 5 | 1 | 3 | –
2 | CCCCC(=O)Nc1cnc(-c2cncc(F)c2)nc1C(F)(F)F [Compound F12] | 0 | 2 | 3 | 1 | 0 | 0 | 4 | 2 | 5 | 0 | 3 | –
3 | O=C1CCCCN1c1cnc(-c2cncc(F)c2)nc1C(F)(F)F [Compound F29] | 1 | 0 | 2 | 1 | 1 | 0 | 4 | 1 | 5 | 0 | 3 | 3
4 | Cc1ccc(C(=O)Nc2cnc(-c3cncc(F)c3)nc2C(F)(F)F)cc1 [Compound F25] | 0 | 0 | 3 | 0 | 0 | 0 | 5 | 1 | 4 | 0 | 2 | 4
5 | O=C1CCCN1c1cnc(-c2cncc(F)c2)nc1C(F)(F)F [Compound F22] | 0 | 0 | 3 | 0 | 0 | 0 | 5 | 1 | 5 | 1 | 3 | 5
6 | O=C(COc1ccccc1)Nc1cnc(-c2cncc(F)c2)nc1C(F)(F)F [Compound F18] | 0 | 1 | 3 | 0 | 0 | 0 | 4 | 1 | 4 | 1 | 3 | 4
7 | CC(C)C(=O)Nc1cnc(-c2cncc(F)c2)nc1C(F)(F)F [Compound F13] | 0 | 2 | 4 | 1 | 0 | 0 | 5 | 2 | 5 | 0 | 3 | –
8 | Cc1nc(-c2cncnc2)ncc1N(C(=O)C(C)C)C(=O)C(C)C [Compound F2, 2-methyl-N-(2-methylpropanoyl)-N-(4-methyl-2-pyrimidin-5-yl-pyrimidin-5-yl)propanamide] | 0 | 2 | 4 | 0 | 0 | 0 | 5 | 1 | – | 0 | 3 | 5
9 | O=C(Nc1cnc(-c2cncc(F)c2)nc1C(F)(F)F)C1CC1 [Compound F14, N-[2-(5-fluoro-3-pyridyl)-4-(trifluoromethyl)-pyrimidin-5-yl]cyclopropanecarboxamide] | 0 | 2 | 4 | 2 | 0 | 0 | 5 | 4 | 5 | 1 | 3 | –
10 | Cc1nc(-c2cncnc2)ncc1NC(=O)C(C)C [Compound F1, 2-methyl-N-(4-methyl-2-pyrimidin-5-yl-pyrimidin-5-yl)propanamide] | 0 | 2 | 3 | 0 | 0 | 0 | 4 | 1 | – | 0 | 3 | 5
11 | CC(=O)Nc1cnc(-c2cncc(F)c2)nc1C(F)(F)F [Compound F11] | 0 | 2 | 4 | 1 | 0 | 1 | 4 | 2 | 5 | 1 | 3 | –
